# Data published in patent US11866479B2, “HIV antibody derivatives with dual antiviral and immunomodulatory activities from CD4 and GP41” (priority 2016, dated 2024).
# Tests used:
# [1] = test system: HIV-1 strain NL4-3; assay: Neutralization assay (TZM-bl, pseudovirus), NL4-3 isolate; format: cell-based
# Experimental: HIV-1 isolates NL4-3, BaL, AC10, SVBP6, SVBP8, SVBP11, SVBP12, SVBP14, SVBP15, SVBP17, SVBP18 and SVBP19 were generated as pseudoviruses using Env expression plasmids and the pSG3 vector. See Sanchez-Palomino S, et al., Vaccine 2011; 29:5250-5259. Cell-free virus neutralization by the antibody derivatives was tested by a standard TZM-bl based assay. See Li, 2005, supra. Briefly, in a 96-well culture plate, 100 of previously diluted antibody derivatives were preincubated with 50 μL of pseudovirus stock, using 200 TCID50 (tissue culture infectious doses) at 37° C. for one hour. Then, 100 containing 10,000 TZM-bl luciferase-reporter target cells per well were added. Plates were cultured at 37° C. and 5% CO2 for 48 hours. […] A luciferase substrate, Britelite Plus (PerkinElmer, Inc., Waltham, Mass., USA), was used for the readout. Non-linear fit of neutralization data was calculated using normalized values fitted to a one site inhibition curve with variable Hill slope. […]
# Briefly, in a 96-well culture plate, 100 μL of previously diluted plasma samples were preincubated with 50 μL of pseudovirus stock, using 200 TCID50 at 37° C. for one hour. […] A luciferase substrate, Britelite Plus (PerkinElmer, Inc., Waltham, Mass., USA), was used for the readout. Non-linear fit of neutralization data was calculated using normalized values fitted to a one site inhibition curve with variable Hill slope. […]
# [2] = test system: HIV-1 strain BaL; assay: Neutralization assay (TZM-bl, pseudovirus), BaL isolate; format: cell-based
# Experimental: HIV-1 isolates NL4-3, BaL, AC10, SVBP6, SVBP8, SVBP11, SVBP12, SVBP14, SVBP15, SVBP17, SVBP18 and SVBP19 were generated as pseudoviruses using Env expression plasmids and the pSG3 vector. […] Cell-free virus neutralization by the antibody derivatives was tested by a standard TZM-bl based assay. […] Briefly, in a 96-well culture plate, 100 of previously diluted antibody derivatives were preincubated with 50 μL of pseudovirus stock, using 200 TCID50 (tissue culture infectious doses) at 37° C. for one hour. Then, 100 containing 10,000 TZM-bl luciferase-reporter target cells per well were added. Plates were cultured at 37° C. and 5% CO2 for 48 hours. Serial dilutions of the antibody derivatives were tested, from 1000 to 0.1 ng/mL. TZM-bl reporter cells were treated with dextran (Sigma-Aldrich, Saint Louis, Mo., USA) to enhance infectivity. A luciferase substrate, Britelite Plus (PerkinElmer, Inc., Waltham, Mass., USA), was used for the readout. Non-linear fit of neutralization data was calculated using normalized values fitted to a one site inhibition curve with variable Hill slope. All statistical analyses and non-linear fitting were performed using the GraphPad Prism v5.0 software.
# [3] = test system: panel of HIV subtype B viruses; assay: Neutralization assay against panel of HIV subtype B viruses (SVBP isolates); format: cell-based, HIV-1
# Experimental: HIV-1 isolates NL4-3, BaL, AC10, SVBP6, SVBP8, SVBP11, SVBP12, SVBP14, SVBP15, SVBP17, SVBP18 and SVBP19 were generated as pseudoviruses using Env expression plasmids and the pSG3 vector. […] Cell-free virus neutralization by the antibody derivatives was tested by a standard TZM-bl based assay. […] Briefly, in a 96-well culture plate, 100 of previously diluted antibody derivatives were preincubated with 50 μL of pseudovirus stock, using 200 TCID50 (tissue culture infectious doses) at 37° C. for one hour. Then, 100 containing 10,000 TZM-bl luciferase-reporter target cells per well were added. Plates were cultured at 37° C. and 5% CO2 for 48 hours. Serial dilutions of the antibody derivatives were tested, from 1000 to 0.1 ng/mL. TZM-bl reporter cells were treated with dextran (Sigma-Aldrich, Saint Louis, Mo., USA) to enhance infectivity. A luciferase substrate, Britelite Plus (PerkinElmer, Inc., Waltham, Mass., USA), was used for the readout. Non-linear fit of neutralization data was calculated using normalized values fitted to a one site inhibition curve with variable Hill slope. All statistical analyses and non-linear fitting were performed using the GraphPad Prism v5.0 software. […]
substance,measurement,setting,value
"MOLECULE-0: CD4-IgG1 fusion protein, SEQ ID NO:11",blocking the infectivity of NL4-3 (in words),[1],lower neutralizing activity
same,blocking the infectivity of BaL (in words),[2],lower neutralizing activity
same,neutralization of panel of HIV subtype B isolates (in words),[3],unable to neutralize primary isolates at 100 ng/mL
